ChEMBL document CHEMBL5500370, “Discovery of potent and novel dual NAMPT/BRD4 inhibitors for efficient treatment of hepatocellular carcinoma” (Eur J Med Chem, 2024)
pIC50: −log10 of the molar value.

Key:
[1] = target: Bromodomain-containing protein 4 (Homo sapiens, UniProt O60885); assay: Inhibition of BRD4 (unknown origin) incubated for 120 mins by TR-FRET assay
[2] = system: Hep 3B2; assay: cells; settings: Homo sapiens, Hep3B, 120 h
[3] = target: Nicotinamide phosphoribosyltransferase (Homo sapiens, UniProt P43490); assay: Inhibition of recombinant NAMPT (unknown origin) by fluorescence based assay
Chain of Nicotinamide phosphoribosyltransferase (P43490 whole entry): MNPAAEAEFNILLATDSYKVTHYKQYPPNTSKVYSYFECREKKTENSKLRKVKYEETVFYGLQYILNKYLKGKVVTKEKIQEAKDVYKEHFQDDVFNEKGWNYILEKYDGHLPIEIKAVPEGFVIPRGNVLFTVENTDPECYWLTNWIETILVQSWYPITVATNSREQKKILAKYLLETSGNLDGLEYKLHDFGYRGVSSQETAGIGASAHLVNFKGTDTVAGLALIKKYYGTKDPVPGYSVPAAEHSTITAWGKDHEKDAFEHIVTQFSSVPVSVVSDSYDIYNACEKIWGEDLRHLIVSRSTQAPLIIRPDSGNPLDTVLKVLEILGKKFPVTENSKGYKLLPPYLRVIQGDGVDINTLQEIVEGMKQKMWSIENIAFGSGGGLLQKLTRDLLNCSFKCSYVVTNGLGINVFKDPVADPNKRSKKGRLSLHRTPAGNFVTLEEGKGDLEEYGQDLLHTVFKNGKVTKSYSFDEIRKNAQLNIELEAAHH

[4] = system: Hep 3B2; assay: Induction of cell cycle arrest at S phase in human Hep3B cells at 10 uM measured after 72 hrs by PI/RNase staining based flow cytometry (reference value: 31.90 %); format: functional
[5] = system: Hep 3B2; assay: Induction of apoptosis in human Hep3B cells assessed as late apoptotic cells at 10 uM measured after 72 hrs by Annexin V-FITC/PI staining based flow cytometry (reference value: 1.05 %); format: functional
[6] = system: HCCLM3; assay: Antiproliferative activity against human HCCLM3 cells incubated for 120 hrs in presence of JQ1 by MTT assay; format: functional, cell-based; settings: HCCLM3, 120 h
[7] = system: HCCLM3; assay: Antitumor activity against human HCCLM3 cells xenografted in BALB/c nude mouse at 60 mg/kg, ip for 27 days relative to control; format: functional; settings: time 27 day
[8] = system: Hep 3B2; assay: Induction of cell cycle arrest at G2/M phase in human Hep3B cells at 10 uM measured after 72 hrs by PI/RNase staining based flow cytometry (reference value: 11.37 %); format: functional
[9] = system: Hep 3B2; assay: Induction of apoptosis in human Hep3B cells assessed as viable cells at 10 uM measured after 72 hrs by Annexin V-FITC/PI staining based flow cytometry (reference value: 94.08 %); format: functional
[10] = system: Hep 3B2; assay: Synergistic antiproliferative activity against human Hep3B cells measured after 72 hrs in presence of JQ1; format: functional, cell-based
[11] = system: Huh-7; assay: cells; settings: Homo sapiens, Huh-7, 120 h
[12] = system: Huh-7; assay: Antiproliferative activity against human Huh-7 cells incubated for 120 hrs in presence of JQ1 by MTT assay; format: functional, cell-based; settings: Huh-7, 120 h
[13] = system: Hep 3B2; assay: Induction of cell cycle arrest at G0/G1 phase in human Hep3B cells at 10 uM measured after 72 hrs by PI/RNase staining based flow cytometry (reference value: 56.73 %); format: functional
[14] = system: HCCLM3; assay: cells; settings: Homo sapiens, HCCLM3, 120 h
[15] = system: Hep 3B2; assay: Induction of apoptosis in human Hep3B cells assessed as necrotic cells at 10 uM measured after 72 hrs by Annexin V-FITC/PI staining based flow cytometry (reference value: 2.74 %); format: functional
[16] = system: Hep 3B2; assay: Induction of apoptosis in human Hep3B cells assessed as early apoptotic cells at 10 uM measured after 72 hrs by Annexin V-FITC/PI staining based flow cytometry (reference value: 2.13 %); format: functional
[17] = Antiproliferative activity against human LX2 cells incubated for 120 hrs in presence of JQ1 by MTT assay; format: toxicity, cell-based; settings: LX-2 cells
[18] = Antiproliferative activity against human LX2 cells incubated for 120 hrs by MTT assay; format: toxicity, cell-based; settings: LX-2 cells
[19] = system: Hep 3B2; assay: Antiproliferative activity against human Hep3B cells measured after 72 hrs; format: functional, cell-based
[20] = system: Hep 3B2; assay: Synergistic antiproliferative activity against human Hep3B cells measured after 72 hrs in presence of FK866; format: functional, cell-based
[21] = system: Huh-7; assay: Antiproliferative activity against human Huh-7 cells incubated for 120 hrs in presence of FK866 by MTT assay; format: functional, cell-based; settings: Huh-7, 120 h
[22] = system: HCCLM3; assay: Antiproliferative activity against human HCCLM3 cells incubated for 120 hrs in presence of FK866 by MTT assay; format: functional, cell-based; settings: HCCLM3, 120 h
[23] = Antiproliferative activity against human LX2 cells incubated for 120 hrs in presence of FK866 by MTT assay; format: toxicity, cell-based; settings: LX-2 cells

Structure (SMILES)	pIC50 [1]	pIC50 [2]	pIC50 [3]	further results
Cc1sc2c(c1C)C(c1ccc(Cl)cc1)=N[C@@H](CC(=O)NCCOCCNC(=O)/C=C/c1cccnc1)c1nnc(C)n1-2	6.50	4.56	6.78	
Cc1sc2c(c1C)C(c1ccc(Cl)cc1)=N[C@@H](CC(=O)NCCCCCNC(=O)/C=C/c1cccnc1)c1nnc(C)n1-2	6.41	4.95	6.94	
Cc1sc2c(c1C)C(c1ccc(Cl)cc1)=N[C@@H](CC(=O)Nc1ccc(CCNC(=O)/C=C/c3cccnc3)cc1)c1nnc(C)n1-2	< 6.00	4.93	7.77	
O=C(/C=C/c1cccnc1)NCCCCC1CCN(C(=O)c2ccccc2)CC1 [DAPORINAD]		4.27		Activity [4]: 28.62%; Activity [5]: 4.26%; pIC50 [6]: 6.40; inhibition in vivo at 60 mg/kg ([7]; Mus musculus, HCCLM3, 648 h, read-out: TGI): 50.1%; Activity [8]: 8.31%; viability at 10 µM ([9]; Homo sapiens, Hep3B, read-out: Activity): 86.9%; pIC50 [10]: 5.81; pIC50 [11]: 5.67; pIC50 [12]: 6.17; Activity [13]: 63.07%; pIC50 [14]: 6.00; Activity [15]: 3.67%; Activity [16]: 5.13%; IC50 at 120 h [17]: < 32 nM; IC50 at 120 h [18]: 210 nM; pIC50 [19]: 4.27
Cc1sc2c(c1C)C(c1ccc(Cl)cc1)=N[C@@H](CC(=O)NCc1ccc(CNC(=O)/C=C/c3cccnc3)cc1)c1nnc(C)n1-2	6.89	5.34	6.70	
Cc1sc2c(c1C)C(c1ccc(Cl)cc1)=N[C@@H](CC(=O)NCCNC(=O)/C=C/c1cccnc1)c1nnc(C)n1-2	7.30	4.89	6.39	
Cc1sc2c(c1C)C(c1ccc(Cl)cc1)=N[C@@H](CC(=O)NCCCCCCNC(=O)/C=C/c1cccnc1)c1nnc(C)n1-2	6.82	5.09	7.92	
Cc1sc2c(c1C)C(c1ccc(Cl)cc1)=N[C@@H](CC(=O)N1CCC(CCCCNC(=O)/C=C/c3cccnc3)CC1)c1nnc(C)n1-2	< 6.00	5.09	7.46	
Cc1sc2c(c1C)C(c1ccc(Cl)cc1)=N[C@@H](CC(=O)OC(C)(C)C)c1nnc(C)n1-2		5.30		Activity [4]: 17.92%; Activity [5]: 5.83%; pIC50 [20]: 5.81; TGI [7]: 51.08%; Activity [8]: 8.59%; Activity [9]: 74.38%; pIC50 [21]: 6.17; pIC50 [22]: 6.40; pIC50 [11]: 4.20; IC50 at 120 h [23]: < 32 nM; Activity [13]: 73.49%; pIC50 [14]: 4.06; Activity [15]: 3.54%; Activity [16]: 16.25%; IC50 at 120 h [18]: < 32 nM; pIC50 [19]: 5.30
Cc1sc2c(c1C)C(c1ccc(Cl)cc1)=N[C@@H](CC(=O)Nc1ccc(NC(=O)/C=C/c3cccnc3)cc1)c1nnc(C)n1-2	< 6.00	4.61	6.34	
Cc1sc2c(c1C)C(c1ccc(Cl)cc1)=N[C@@H](CC(=O)NCCOCCOCCNC(=O)/C=C/c1cccnc1)c1nnc(C)n1-2	6.28	4.66	7.89	
Cc1sc2c(c1C)C(c1ccc(Cl)cc1)=N[C@@H](CC(=O)N1CCC(CNC(=O)/C=C/c3cccnc3)CC1)c1nnc(C)n1-2	6.85	5.24	< 6.00	
Cc1sc2c(c1C)C(c1ccc(Cl)cc1)=N[C@@H](CC(=O)N1CCC(CCCNC(=O)/C=C/c3cccnc3)CC1)c1nnc(C)n1-2	6.21	5.32	6.78	
Cc1sc2c(c1C)C(c1ccc(Cl)cc1)=N[C@@H](CC(=O)NCc1ccc(NC(=O)/C=C/c3cccnc3)cc1)c1nnc(C)n1-2	6.50	5.02	6.51	
Cc1sc2c(c1C)C(c1ccc(Cl)cc1)=N[C@@H](CC(=O)N1CCC(NC(=O)/C=C/c3cccnc3)CC1)c1nnc(C)n1-2	6.56	5.27	< 6.00	
Cc1sc2c(c1C)C(c1ccc(Cl)cc1)=N[C@@H](CC(=O)NCCCCNC(=O)/C=C/c1cccnc1)c1nnc(C)n1-2	6.90	5.04	8.00	
Cc1sc2c(c1C)C(c1ccc(Cl)cc1)=N[C@@H](CC(=O)N1CCC(CCNC(=O)/C=C/c3cccnc3)CC1)c1nnc(C)n1-2	6.74	5.20	7.06	
